Series [1] has as its system Leishmania donovani LV9 axenic amastigotes. The series can be described thus: In vitro anti-leishmanial testing on axenic amastigotes (resazurin). The settings on record: then resazurin 24 h. The series is classed as cell-based. The method, then: (§1) Leishmania donovani promastigotes (MHOM/ET/67/HU3/LV9) were cultured with 5% CO2 in M199 complete medium containing M199 medium supplemented with 100 μM adenosine, 0.5 mg/L hemin, 40 mM Hepes pH 7.4 and 10% heat inactivated fetal bovine serum (HIFBS) in the dark at 26 °C. Late log promastigotes diluted at 1 × 10^6/mL in M199 complete medium acidified at pH 5.5 and cultured at 37 °C with 5% CO2 provided the cultures of axenic amastigotes of L. donovani.
Previously described protocols were adapted for evaluation of compounds on L. donovani. For axenic amastigotes, two-fold serial dilutions of the compounds were done in 96-well microplates with 100 μL of complete medium (see above). Axenic amastigotes were then added to each well at a density of […] in a 200 μL final volume. After 72 h of incubation with 5% CO2 at 37 °C, 20 μL of resazurin (450 μM) was added to each well and further incubated with 5% CO2 at 37 °C for 24 h in the dark. Resazurin is reduced to resorufin in living cells and can be then monitored by measuring OD570nm (resorufin) and OD600nm (resazurin; Lab systems Multiskan MS). Compound activity was expressed as IC50 (µM). The drug used for reference was Amphotericin B (AmB).
(In general: Alamar Blue is a resazurin reagent that responds to reducing activity.)

For series [2], the system named is Leishmania donovani LV9 intramacrophage amastigotes. Description: In vitro anti-leishmanial testing on intramacrophage amastigotes (RAW 264.7, Sybr Green I). The class given is cell-based. As to conditions: for SI = CC50/IC50 Intramacro. Amas.: CC50 RAW 264.7 / IC50 intramacrophage amastigotes; for IC50: Leishmania donovani, RAW264.7, RAW 264.7 macrophages, 48 h treatment. The method, then: as §1
(§2) RAW 264.7 macrophages were grown with 5% CO2 in DMEM complete medium containing Dulbecco’s Modified Eagle’s Medium (DMEM) with 100 U/mL penicillin-streptomycin, and 10% HIFBS at 37 °C.
For intramacrophage amastigote testing, RAW 264.7 macrophages were incubated with 5% CO2 at 37 °C for 24 h after being plated in 96-well microplates at a density of 2 × 10^4 cells per well. Axenic amastigotes were differentiated as described above, centrifuged at 2000 g for 10 min, re-suspended in DMEM complete medium, and added to each well to reach a 16:1 parasite to macrophage ratio. 24 h of infection with 5% CO2 at 37 °C proceeded, and extracellular parasites were removed. This was followed by addition to each well of DMEM complete medium (100 μL) containing two-fold serial dilutions of the compounds from a maximal concentration of 100 μM. The medium was removed following treatment of 48 h and replaced by Direct PCR Lysis Reagent (100 μL; Euromedex) before 3 freeze-thaw cycles at room temperature, addition of 50 μg/mL proteinase K, and a final incubation at 55 °C overnight to allow cell lysis. 10 μL of each cell extract was then added to 40 μL of Direct PCR Lysis reagent containing Sybr Green I (0.05%; Invitrogen). Mastercycler® realplex (Eppendorf) was used to monitor DNA fluorescence. Compound activity was expressed as IC50 (µM). The drug used for reference was Amphotericin B (AmB).

Series [3] can be described thus: Cytotoxicity test on macrophages (resazurin). The settings on record: mouse, RAW 264.7 macrophages, 48 h incubation. The series is classed as cell-based. The method, then:
as §2
(§3) RAW 264.7 macrophages were used for cytotoxicity testing. Cells were plated in 96-well microplates at a density of 2 × 10^4 cells per well. Twenty-four hours of incubation with 5% CO2 at 37 °C followed, and then the medium was removed and to each well, 100 μL of DMEM complete medium containing two-fold serial dilutions of the compounds were added. This was followed by 48 h of incubation with 5% CO2 at 37 °C, after which 10 μL of resazurin (450 μM) was added to each well, and further incubated with 5% CO2, in the dark for 4 h at 37 °C. Cell viability was then monitored as above. Compound cytotoxicity was expressed as CC50 (Cytotoxic Concentration 50%: concentration inhibiting the macrophages growth by 50%).

Series [4] deals with RAW 264.7 macrophages. Description: Cytotoxicity test on macrophages (resazurin). The class given is cell-based. As to conditions: as defined. The method, then: as §2, §3
The test system of series [5] is Leishmania donovani LV9 axenic amastigotes. The series can be described thus: In vitro anti-leishmanial testing on axenic amastigotes (resazurin). The series is classed as cell-based. The settings on record: against Leishmania axenic amastigotes (as worded).
Series [6] concerns Leishmania. More on the design: method as in PMID 18353643. As to conditions: read-out: IC50 of reference drug miltefosine; cited from earlier work.
The mark [7] stands for this setting: Table 3, read-out: Leishmania donovani LV9 Intramacrophage Amastigotes IC50 ± SD.
The mark [8] stands for this setting: Table 2, 72 h incubation, read-out: Leishmania donovani LV9 axenic Amastigotes Forms IC50 ± SD.
Where [9] appears, read: Table 2, read-out: Leishmania donovani Intramacrophage Amastigotes Forms IC50 ± SD.
Where [10] appears, read: Table 2, read-out: Toxicity on RAW 264.7 Macrophages CC50 ± SD.

Here are results for 12 molecules from publication PMC6480966, “Synthesis, In Silico, and In Vitro Evaluation of Anti-Leishmanial Activity of Oxadiazoles and Indolizine Containing Compounds Flagged against Anti-Targets” (Molecules, 2019).

Where two headings read alike, the source gives them in different places.

One may read the IC50 as the point on the concentration scale where inhibition reaches its midpoint. The CC50 is the concentration at which the toxic effect on the cells reaches its halfway point. The term melting point denotes the temperature, or range, at which the solid turns liquid.

Turning to `C[C@@H]1[C@H](O)[C@@H](C)/C=C/C=C/C=C/C=C/C=C/C=C/C=C/[C@H](O[C@@H]2O[C@H](C)[C@@H](O)[C@H](N)[C@@H]2O)C[C@@H]2O[C@](O)(C[C@@H](O)C[C@@H](O)[C@H](O)CC[C@@H](O)C[C@@H](O)CC(=O)O[C@H]1C)C[C@H](O)[C@H]2C(=O)O` [AmB, Amphotericin B, reference compound], the half-maximal inhibitory concentration (IC50) in series [1] (Table 3, 72 h incubation, read-out: Leishmania donovani LV9 Axenic Amastigotes IC50 ± SD) was 0.2 ± 0.08 µM; in series [2] (setting [7]), 0.11 ± 0.09 µM. Moreover, the “SI = CC50/IC50 Intramacro. Amas.” value in series [2] is 48.7. Also, in series [3] (Table 3, read-out: Cytotoxicity on RAW 264.7 Macrophages CC50 ± SD), the CC50 at 48 h was determined as 5.36 ± 0.52 µM.
On to `Cc1csc(C=NNC(=O)c2ccco2)n1` [Compound 1, N’-[(4-Methyl-2-thiazolyl)methylene]furan-2-carbohydrazide], for which the melting point was in the range of 121 to 124 °C. The half-maximal inhibitory concentration (IC50) in series [1] (setting [8]) worked out at 11.9 ± 1.87 µM. Moreover, the “SI = CC50/IC50 Intramacro. Amas.” value in series [2] is reported as 2.2. Further, in series [2] (setting [9]), the concentration for half-maximal inhibition (IC50) was 6.25 ± 1.89 µM. In addition, the CC50 at 48 h in series [3] (setting [10]) stood at 13.9 ± 2.11 µM.
In the case of `O=C(NN=Cc1ccc(Br)s1)c1cccs1` [Compound 2, N’-[(5-Bromo-2-thiophenyl)methylene]thiophene-2-carbohydrazide], the values for the IC50 in series [1] (setting [8]), in series [2] (setting [9]) and in series [2] (setting [7]) were 1.09 ± 0.12 µM, 2.18 ± 0.01 µM and < 5 µM, respectively. Besides, in series [2], the “SI = CC50/IC50 Intramacro. Amas.” value came to 2.2. For the same molecule, in series [3] (setting [10]), the half-maximal cytotoxic concentration (CC50) at 48 h turned out to be 4.87 ± 0.39 µM. Moreover, in series [4], the “selectivity index (SI, CC50 for macrophage/IC50 for promastigotes)” value was ≥ 2. Further, the “selectivity index (SI)” value in series [5] worked out at 2.
`O=C(NN=Cc1ccc(Br)s1)c1ccco1` [Compound 3, N’-[(5-Bromo-2-thiophenyl)methylene]furan-2-carbohydrazide] returned a melting point of 201 to 202 °C. Besides, in series [1] (setting [8]), the half-inhibitory concentration (IC50) was > 100 µM. Also, the IC50 in series [2] (setting [9]) was > 100 µM. Moreover, in series [3] (setting [10]), the half-maximal cytotoxic concentration (CC50) at 48 h is > 100 µM.
`O=C(NN=Cc1nc2ccccc2s1)c1cccs1` [Compound 4, N’-[(2-Benzothiazolyl)methylene]thiophene-2-carbohydrazide] gave a melting point of 231 to 234 °C. Moreover, the IC50 in series [1] (setting [8]) was determined as 12.5 ± 0.61 µM. Also, the “SI = CC50/IC50 Intramacro. Amas.” value in series [2] came to 1.4. In addition, the half-maximal inhibitory concentration (IC50) in series [2] (setting [9]) was 11.2 ± 0.62 µM. The CC50 at 48 h in series [3] (setting [10]) was found to be 16.3 ± 1.42 µM.
`O=C(NN=Cc1nc2ccccc2s1)c1ccncc1` [Compound 5, N’-[(2-Benzothiazolyl)methylene]pyridine-4-carbohydrazide] registered a melting point of 234 to 237 °C. The IC50 in series [1] (setting [8]) is 61.5 ± 5.99 µM. In addition, the “SI = CC50/IC50 Intramacro. Amas.” value in series [2] is >1.8. The half-maximal inhibitory concentration (IC50) in series [2] (setting [9]) came out at 55.2 ± 4.77 µM. Besides, in series [3] (setting [10]), the CC50 at 48 h is > 100 µM.
For the molecule `NC(=NO)c1cccc([N+](=O)[O-])c1` [Compound 7, 3-Nitrobenzamidoxime], the melting point was in the range of 182 to 184 °C. For the same molecule, in series [1] (setting [8]), the IC50 came to 51.2 ± 4.98 µM. Moreover, the “SI = CC50/IC50 Intramacro. Amas.” value in series [2] is on record as >2.1. Moreover, the IC50 in series [2] (setting [9]) came out at 47.2 ± 3.12 µM. Moreover, in series [3] (setting [10]), the CC50 at 48 h was > 100 µM.
In turn, `COCc1nc(-c2ccc3c(c2)OCO3)no1` [Compound 8] came in with a melting point of 56 to 57 °C. For the same molecule, in series [1] (setting [8]), the IC50 was 59.9 ± 6.45 µM. Besides, in series [2], the “SI = CC50/IC50 Intramacro. Amas.” value is >1.9. In addition, the 50% inhibitory concentration (IC50) in series [2] (setting [9]) came out at 51.3 ± 4.35 µM. For the same molecule, in series [3] (setting [10]), the CC50 at 48 h is > 100 µM.
On to `COC(=O)c1c(C(=O)OC)c2ccccn2c1-c1nc2cc([N+](=O)[O-])ccc2[nH]1` [Compound 11, Dimethyl 3-(5-nitro-1H-benzo[d]imidazol-2-yl)indolizine-1,2-dicarboxylate], for which the melting point turned out to be 234 °C.
`COC(=O)c1c(C(=O)OC)c2c3ccccc3ccn2c1-c1nc2cc([N+](=O)[O-])ccc2[nH]1` [Compound 12, Dimethyl 3-(5-nitro-1H-benzo[d]imidazol-2-yl)pyrrolo[2,1-a]isoquinoline-1,2-dicarboxylate] displayed a melting point of 162 °C. For the same molecule, the 50% inhibitory concentration (IC50) in series [1] (setting [8]) was > 100 µM. Further, the half-inhibitory concentration (IC50) in series [2] (setting [9]) is > 100 µM. The CC50 at 48 h in series [3] (setting [10]) is > 100 µM.
Turning to `COC(=O)c1cc(-c2nc3cc([N+](=O)[O-])ccc3[nH]2)n2ccc3ccccc3c12` [Compound 13, Methyl 3-(5-nitro-1H-benzo[d]imidazol-2-yl)pyrrolo[2,1-a]isoquinoline-1-carboxylate], the melting point is 280 °C.
With `CCCCCCCCCCCCCCCCOP(=O)([O-])OCC[N+](C)(C)C` [miltefosine], in series [6], the IC50 was 0.31 µM.
